Data set [1] in a line: Hydrolysis of prodrug into acting drug (rebamipide) in whole blood of rat, HPLC. In kind it is in vitro ADME. The settings on record: for half-life at 0.196 mg/mL: half life of conversion from prodrug to rebamipide, read-out: Conversion Time in Whole Rat Blood (t1/2). How it is done:
Frozen rat blood was thawed for about 1 hr in a 37° C. water bath and homogenized.
A stock solution was prepared by dissolving 10 mg of the compound of each Example in 1 mL of CAN. Optionally, a buffer (prepared by mixing 750 mL of a solution of Na2HPO4 0.58 g and KH2PO4 2 g in 1 L of H2O with 250 mL of CAN) was added. In a 4 mL tube, 40 μL of the stock solution was uniformly mixed with 2 mL of blood by shaking, followed by storage at 30 rpm in a water bath.
At 0, 2, 4, 6, 8, 10, 15, 30, 45, 60, 90, and 120 min after storage, a sample was taken in a volume of 200 μL, diluted in 400 μL of CAN, vortexed for 1 min, and centrifuged for 1 min. The supernatant was analyzed by HPLC (but, for the compound of Example 47, sampling was performed at 0, 1, 3, 5, 7, and 10 min after storage). In addition, measurement was made of the time that it took for the prodrugs to be converted into the acting drug (rebamipide).

Data set [2] concerns acetic acid-induced gastric ulcers. The settings on record: rats; cited from earlier work.
For data set [3] the following is noted: due to low solubility and low intestinal permeability; cited from earlier work.
For data set [4] the following is noted: in vivo; cited from earlier work.
The conditions of data set [5]: cited from earlier work.

“Also recorded” adds a separate entry of the source. Like-named read-outs stand apart in the source and are kept apart here.

On to `CN(C)CCOC(=O)C(Cc1cc(=O)[nH]c2ccccc12)NC(=O)c1ccc(Cl)cc1` (stereo not drawn) [Example 14, 2-Dimethylaminoethyl 2-(4-chlorobenzoylamino)-3-(2-oxo-1,2-dihydroquinolin-4-yl)propionate], for which the half-life at 0.196 mg/mL in data set [1] is < 2 min.
Same read-out and setting: as for `CCN(CC)CCOC(=O)C(Cc1cc(=O)[nH]c2ccccc12)NC(=O)c1ccc(Cl)cc1` (stereo not drawn) [Example 16, 2-Diethylaminoethyl 2-(4-chlorobenzoylamino)-3-(2-oxo-1,2-dihydroquinolin-4-yl)propionate], the figure is < 2 min; as for `O=C(NC(Cc1cc(=O)[nH]c2ccccc12)C(=O)OCCN1CCCCC1)c1ccc(Cl)cc1` (stereo not drawn) [Example 44, 2-Piperidin-1-ylethyl 2-(4-chlorobenzoylamino)-3-(2-oxo-1,2-dihydroquinolin-4-yl)propionate], < 2 min.
For `O=C(NC(Cc1cc(=O)[nH]c2ccccc12)C(=O)OCCN1CCOCC1)c1ccc(Cl)cc1` (stereo not drawn) [Example 47, 2-Morpholin-4-ylethyl 2-(4-chlorobenzoylamino)-3-(2-oxo-1,2-dihydroquinolin-4-yl)propionate], the “time to complete conversion into rebamipide” value in data set [1] (FIG. 1) is recorded as “about 10 min”. In data set [1], the half-life at 0.196 mg/mL amounted to 2.57 min.
On to `CN1CCN(C(=O)COC(=O)C(Cc2cc(=O)[nH]c3ccccc23)NC(=O)c2ccc(Cl)cc2)CC1` (stereo not drawn) [Example 99, 2-(4-Methylpiperazin-1-yl)-2-oxoethyl 2-(4-chlorobenzoylamino)-3-(2-oxo-1,2-dihydroquinolin-4-yl)propionate], for which the half-life at 0.196 mg/mL in data set [1] was < 2 min.
As to `CCC(OC(=O)C(Cc1cc(=O)[nH]c2ccccc12)NC(=O)c1ccc(Cl)cc1)C(=O)N1CCN(C)CC1` (stereo not drawn) [Example 100, 1-(4-Methylpiperazine-1-carbonyl)propyl 2-(4-chlorobenzoylamino)-3-(2-oxo-1,2-dihydroquinolin-4-yl)propionate], in data set [1], the half-life at 0.196 mg/mL was < 2 min.
As for `CON(C)C(=O)COC(=O)C(Cc1cc(=O)[nH]c2ccccc12)NC(=O)c1ccc(Cl)cc1` (stereo not drawn) [Example 102, (Methoxymethylcarbamoyl)methyl 2-(4-chlorobenzoylamino)-3-(2-oxo-1,2-dihydroquinolin-4-yl)propionate], the half-life at 0.196 mg/mL in data set [1] is < 2 min.
Same read-out and setting: as for `O=C(COC(=O)C(Cc1cc(=O)[nH]c2ccccc12)NC(=O)c1ccc(Cl)cc1)OCCN1CCOCC1` (stereo not drawn) [Example 105, 2-Morpholin-4-yl-ethoxycarbonylmethyl 2-(4-chlorobenzoylamino)-3-(2-oxo-1,2-dihydroquinolin-4-yl)propionate], the figure is < 2 min; as for `CCC(OC(=O)C(Cc1cc(=O)[nH]c2ccccc12)NC(=O)c1ccc(Cl)cc1)C(=O)OCCN1CCOCC1` (stereo not drawn) [Example 106, 2-Morpholin-4-ylethyl 2-[2-(4-chlorobenzoylamino)-3-(2-oxo-1,2-dihydroquinolin-4-yl)propionyloxy]butyrate], < 2 min; as for `O=C(OCCN1CCOCC1)OCOC(=O)C(Cc1cc(=O)[nH]c2ccccc12)NC(=O)c1ccc(Cl)cc1` (stereo not drawn) [Example 109, 2-Morpholin-4-yl-ethoxycarbonyloxymethyl 2-(4-chlorobenzoylamino)-3-(2-oxo-1,2-dihydroquinolin-4-yl)propionate], < 2 min.
Still for that read-out and setting: as for `CCN(CC)CCSC(=O)C(Cc1cc(=O)[nH]c2ccccc12)NC(=O)c1ccc(Cl)cc1` (stereo not drawn) [Example 121, S-(2-Diethylamino)ethyl 2-(4-chlorobenzoylamino)-3-(2-oxo-1,2-dihydroquinolin-4-yl)thiopropionate], the figure is < 2 min.
Still for that read-out and setting: the figure for `O=C(NC(Cc1cc(=O)[nH]c2ccccc12)C(=O)SCCN1CCCC1)c1ccc(Cl)cc1` (stereo not drawn) [Example 144, S-(2-Pyrrolidin-1-yl)ethyl 2-(4-chlorobenzoylamino)-3-(2-oxo-1,2-dihydroquinolin-4-yl)thiopropionate] is < 2 min; for `O=C(NC(Cc1cc(=O)[nH]c2ccccc12)C(=O)SCCN1CCOCC1)c1ccc(Cl)cc1` (stereo not drawn) [Example 151, S-(2-Morpholin-4-yl)ethyl 2-(4-chlorobenzoylamino)-3-(2-oxo-1,2-dihydroquinolin-4-yl)propionate] it is < 2 min.
Turning to `Cc1oc(=O)oc1CSC(=O)C(Cc1cc(=O)[nH]c2ccccc12)NC(=O)c1ccc(Cl)cc1` (stereo not drawn) [Example 155, S-(5-Methyl-2-oxo-[1,3]dioxol-4-yl)methyl 2-(4-chlorobenzoylamino)-3-(2-oxo-1,2-dihydroquinolin-4-yl)thiopropionate], in data set [1], the half-life at 0.196 mg/mL is < 2 min.
Regarding `O=C(NC(Cc1cc(=O)[nH]c2ccccc12)C(=O)O)c1ccc(Cl)cc1` (stereo not drawn) [Rebamipide], the “effect on ulcer size, relapse rate and cure rate” value in data set [2] was “reduces sizes and relapse rates of the ulcer while improving the cure rate”. Further, in data set [3], the BCS class entry is given as “Class IV”. In addition, in data set [4], the bioavailability entry is “around 5%”. The figures for the aqueous solubility entry in data set [5] (pH 3) and in data set [5] (pH 7) were “approximately 0.0001 % (w/v)” and “approximately 0.013 % (w/v)”, respectively. Moreover, the “solubility in solvents (in words)” value in data set [5] (solvent named in the value) is “freely soluble in dimethylformamide; also recorded: slightly soluble in methanol and ethanol; also recorded: almost insoluble in ether and water”.
